This note sets out measurements from EP0400227A1, “Natriuretic peptides” (Acticor, Inc., priority 1989, dated 1990).

Ends that are not written are not given here.

The test deals with rats. Put plainly: Natriuretic and diuretic effect of intravenous bolus injection in anesthetized rats. The conditions noted are these: 30 to 60 minutes after minus 30 to 0 minutes before injection, mean ± SEM. It counts as in vivo, male Sprague-Dawley or Long-Evans rats. The method, then:
Diuretic and natriuretic activity of the peptides of this invention is assayed in male rats of the Sprague-Dawley or Long-Evans strains. Peptide or vehicle (for control purposes) is administered by intravenous bolus injection or by continuous infusion into one […] of animals anesthetized for the duration of the experiment, or by intramuscular or subcutaneous injection into animals only briefly anesthetized with ether and subsequently conscious and freely moving until completion of the experiment. Timed urine samples are collected for determination of volume and measurement of sodium and potassium concentration by flame photometry. Details of each method are given in Examples II to IV below.
The natriuretic and diuretic effect of intravenous bolus injection of peptides F15R, G13R and E19R was tested in male Sprague-Dawley or Long-Evans rats weighing 300-400 g. The animals were given Inactin®, 120 mg per kg body weight i.p. under light ether anesthesia. Following placement of a tracheal cannula, the right femoral vein was catheterized for infusion of 5% bovine serum albumin at a dose of 0.4% of body weight and at a rate of 6.0 ml/hour. Subsequently, normal saline was infused for the duration of the experiment at a rate of 2.0 ml/hour. The bladder was exposed through an abdominal incision and catheterized for urine collection. Serial 15-minute urine collections in preweighed vials were begun after a recovery period of 45 minutes. After collection of four control samples, the peptide in 0.1 ml of vehicle was injected into the femoral vein over a period of 1 minute and 6 to 10 further urine samples were collected. Urine volume was determined by weighing and urine sodium and potassium were assayed by flame photometry. All peptides produced natriuresis and diuresis reaching peak levels usually between 30 and 60 minutes after injection. The difference between urine volume and sodium excretion observed from 30 to 60 minutes after and 30 to 0 minutes before peptide administration was calculated for each rat as a measure of activity.

[1] abbreviates: i.v. 0.100 nmol (0.10 nmol for G13R).

In the case of ETPMFPGNGDEQPLTENP [E19R], for the setting “i.v. 0.025 nmol”, the “Change in Sodium Excretion” value turned out to be 6.50 ± 3.60 µeq/30 minutes and the “Change in Urine Volume” value was 89.0 ± 43.6 µl/30 minutes. For the same sequence, under setting [1], the “Change in Sodium Excretion” value was 12.07 ± 5.08 µeq/30 minutes and the “Change in Urine Volume” value was determined as 104.2 ± 58.0 µl/30 minutes.
Turning to GNGDEQPLTPNPR [G13R], under setting [1], the “Change in Sodium Excretion” value was 8.39 ± 4.41 µeq/30 minutes and the “Change in Urine Volume” value was determined as 80.0 ± 29.2 µl/30 minutes. Also, where the note is “i.v. 1.00 nmol”, the “Change in Sodium Excretion” value is on record as 12.48 ± 6.22 µeq/30 minutes and the “Change in Urine Volume” value came to 62.0 ± 17.2 µl/30 minutes.
